Literature values as cited in patent US6379615B1, “Methods of sterilizing articles” (St. Jude Medical, Inc., priority 2000, dated 2002).

Details: ethanol at about 70 percent by weight; cited from earlier work

## CCO [ethanol]
  bactericidal effect of ethanol alone: only mildly bactericidal
